From patent US9062066B2, “Anti-inflammatory compound having inhibitory activity against multiple tyrosine kinases and pharmaceutical composition containing same” (KOREA INSTITUTE OF SCIENCE AND TECHNOLOGY, priority 2010, dated 2015)
Where two headings read alike, the source gives them in different places.

Assays:
Fgr tyrosine kinase = Fgr tyrosine kinase (Homo sapiens (Human), UniProt P09769); test: in vitro Fgr tyrosine kinase inhibition; format: biochemical; conditions: 1 uM compound; read-out: % inhibition against Fgr
Hck tyrosine kinase = Hck tyrosine kinase (Homo sapiens (Human), UniProt P08631); test: in vitro Hck tyrosine kinase inhibition; format: biochemical; conditions: 1 uM compound; read-out: % inhibition against Hck
DDR1 tyrosine kinase = DDR1 tyrosine kinase (Homo sapiens (Human), UniProt Q08345); test: in vitro DDR1 tyrosine kinase inhibition (GST-fused kinase domain); format: biochemical; conditions: 1 uM compound; read-out: % inhibition against DDR1
DDR2 tyrosine kinase = DDR2 tyrosine kinase (Homo sapiens (Human), UniProt Q16832); test: in vitro DDR2 tyrosine kinase inhibition (GST-fused kinase domain); format: biochemical; conditions: 1 uM compound; read-out: % inhibition against DDR2
[1] = test system: TNF-α synthesis in J744A.1 macrophages; test: inhibition of TNF-α synthesis in LPS-activated macrophages (ELISA); format: cell-based; conditions: Macrophage; 10 μM compound, 100 ng/ml LPS, 6 hours; read-out: Inhibition (%) of TNF-α synthesis
[2] = test system: NO synthesis in J744A.1 macrophage; test: inhibition of nitric oxide (NO) synthesis in LPS-activated macrophages (Griess reagent); format: cell-based; conditions: read-out: Inhibition (%) of NO synthesis
c-Src tyrosine kinase = c-Src tyrosine kinase (Homo sapiens (Human), UniProt P12931); test: in vitro c-Src tyrosine kinase inhibition (32P-ATP, poly(D4Y)n substrate); format: biochemical; conditions: 1 uM compound; read-out: % inhibition against c-Src
Lyn tyrosine kinase = Lyn tyrosine kinase (Homo sapiens (Human), UniProt P07948); test: in vitro Lyn tyrosine kinase inhibition; format: biochemical; conditions: 1 uM compound; read-out: % inhibition against Lyn
Lyn tyrosine kinase, sequence (P07948 whole entry): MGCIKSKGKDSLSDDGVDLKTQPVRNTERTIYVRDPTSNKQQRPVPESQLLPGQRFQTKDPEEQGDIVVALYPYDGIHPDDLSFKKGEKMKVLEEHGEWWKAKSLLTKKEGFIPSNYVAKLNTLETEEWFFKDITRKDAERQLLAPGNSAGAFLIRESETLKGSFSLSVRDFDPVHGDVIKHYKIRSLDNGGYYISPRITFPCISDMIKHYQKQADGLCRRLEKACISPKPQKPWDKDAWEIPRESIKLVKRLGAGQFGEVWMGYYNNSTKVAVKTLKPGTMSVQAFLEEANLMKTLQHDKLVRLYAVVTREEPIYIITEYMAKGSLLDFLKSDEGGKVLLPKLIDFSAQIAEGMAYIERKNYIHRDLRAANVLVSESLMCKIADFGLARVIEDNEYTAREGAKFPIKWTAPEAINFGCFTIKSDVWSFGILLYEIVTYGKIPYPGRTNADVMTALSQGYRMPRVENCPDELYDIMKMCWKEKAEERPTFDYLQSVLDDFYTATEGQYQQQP

c-Src tyrosine kinase, sequence (P12931 whole entry, looked up): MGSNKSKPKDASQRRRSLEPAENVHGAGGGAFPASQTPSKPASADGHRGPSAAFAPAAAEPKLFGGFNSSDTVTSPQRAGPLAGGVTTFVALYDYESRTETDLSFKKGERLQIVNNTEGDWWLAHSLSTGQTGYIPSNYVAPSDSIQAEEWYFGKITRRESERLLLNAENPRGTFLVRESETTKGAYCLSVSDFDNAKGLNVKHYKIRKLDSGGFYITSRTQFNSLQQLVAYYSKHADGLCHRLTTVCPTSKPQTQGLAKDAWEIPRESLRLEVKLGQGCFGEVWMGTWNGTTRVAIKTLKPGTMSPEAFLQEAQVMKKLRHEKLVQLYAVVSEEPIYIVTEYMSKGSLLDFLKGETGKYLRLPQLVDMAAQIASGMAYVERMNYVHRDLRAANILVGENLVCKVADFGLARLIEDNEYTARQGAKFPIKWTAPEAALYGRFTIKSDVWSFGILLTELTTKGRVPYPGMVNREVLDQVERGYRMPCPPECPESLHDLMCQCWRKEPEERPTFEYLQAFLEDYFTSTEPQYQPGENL
DDR2 tyrosine kinase, sequence (Q16832 563-849): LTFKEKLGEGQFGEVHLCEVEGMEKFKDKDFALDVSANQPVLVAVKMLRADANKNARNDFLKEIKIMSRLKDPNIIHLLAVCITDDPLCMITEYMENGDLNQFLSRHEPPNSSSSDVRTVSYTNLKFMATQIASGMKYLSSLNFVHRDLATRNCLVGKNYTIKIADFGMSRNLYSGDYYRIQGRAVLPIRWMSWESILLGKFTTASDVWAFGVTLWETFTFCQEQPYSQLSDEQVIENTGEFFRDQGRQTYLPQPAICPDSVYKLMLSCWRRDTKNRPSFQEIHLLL
Hck tyrosine kinase, sequence (P08631 whole entry, the tested form may be a part): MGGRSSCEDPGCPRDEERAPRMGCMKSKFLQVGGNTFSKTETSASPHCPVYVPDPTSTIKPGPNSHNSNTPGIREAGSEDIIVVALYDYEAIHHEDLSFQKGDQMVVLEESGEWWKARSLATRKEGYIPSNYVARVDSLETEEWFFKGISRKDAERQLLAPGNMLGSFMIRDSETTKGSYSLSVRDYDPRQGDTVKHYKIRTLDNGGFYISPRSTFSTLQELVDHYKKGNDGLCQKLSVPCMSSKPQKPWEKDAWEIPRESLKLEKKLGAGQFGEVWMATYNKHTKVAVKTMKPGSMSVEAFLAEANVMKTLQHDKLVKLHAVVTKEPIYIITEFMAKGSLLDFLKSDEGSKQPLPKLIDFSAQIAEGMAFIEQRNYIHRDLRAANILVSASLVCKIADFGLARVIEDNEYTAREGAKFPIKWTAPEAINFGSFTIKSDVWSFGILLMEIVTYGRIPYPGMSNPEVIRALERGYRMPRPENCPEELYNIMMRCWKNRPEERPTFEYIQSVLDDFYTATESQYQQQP
DDR1 tyrosine kinase, sequence (Q08345 610-905): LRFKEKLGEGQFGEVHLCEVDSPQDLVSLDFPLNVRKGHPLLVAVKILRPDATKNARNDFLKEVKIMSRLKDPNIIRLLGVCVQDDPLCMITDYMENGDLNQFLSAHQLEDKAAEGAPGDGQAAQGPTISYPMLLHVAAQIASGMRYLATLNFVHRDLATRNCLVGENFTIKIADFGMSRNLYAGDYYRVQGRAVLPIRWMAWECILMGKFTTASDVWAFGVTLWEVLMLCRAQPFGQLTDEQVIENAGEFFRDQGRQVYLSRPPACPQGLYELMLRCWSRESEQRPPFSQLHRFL
Fgr tyrosine kinase, sequence (P09769 whole entry): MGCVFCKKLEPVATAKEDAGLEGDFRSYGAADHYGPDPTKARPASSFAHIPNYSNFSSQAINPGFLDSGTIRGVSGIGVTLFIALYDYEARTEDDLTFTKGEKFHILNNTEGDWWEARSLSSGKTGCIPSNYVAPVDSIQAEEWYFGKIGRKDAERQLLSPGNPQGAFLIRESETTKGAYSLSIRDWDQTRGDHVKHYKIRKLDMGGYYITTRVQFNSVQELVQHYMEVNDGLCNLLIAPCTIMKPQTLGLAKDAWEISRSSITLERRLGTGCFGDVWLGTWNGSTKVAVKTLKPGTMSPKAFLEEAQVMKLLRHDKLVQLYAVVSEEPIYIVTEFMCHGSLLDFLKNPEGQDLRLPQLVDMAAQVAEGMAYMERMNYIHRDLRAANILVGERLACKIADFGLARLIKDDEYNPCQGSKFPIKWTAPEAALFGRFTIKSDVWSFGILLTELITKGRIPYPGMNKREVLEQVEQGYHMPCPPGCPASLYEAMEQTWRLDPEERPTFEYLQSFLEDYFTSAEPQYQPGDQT

Row | Compound | inhibition at 1 µM (Fgr tyrosine kinase) [%] | inhibition at 1 µM (Hck tyrosine kinase) [%] | inhibition at 1 µM (DDR1 tyrosine kinase) [%] | inhibition at 1 µM (DDR2 tyrosine kinase) [%] | inhibition at 1 µM (c-Src tyrosine kinase) [%] | inhibition at 1 µM (Lyn tyrosine kinase) [%] | inhibition at 10 µM [1] [%] | inhibition at 10 µM ([2]; 10 μM compound, LPS, 24 hours) [%] | inhibition at 10 µM ([2]; 24 h) [%]
1 | O=C(c1cccc(-c2cc3ncnc(Nc4cccc(O)c4)c3s2)c1)N1CCCC1 [LCB 03-0053, (3-(4-(3-hydroxyphenylamino)thieno[3,2-d]pyrimidin-6-yl)phenyl)(pyrrolidin-1-yl)methanone] | > 70 | > 70 | > 80 | > 80 | > 70 | > 70 | 83 | 94 | 
2 | CN1CCN(C(=O)Cc2ccc(-c3cc4ncnc(Nc5cccc(O)c5)c4s3)cc2)CC1 [LCB 03-0047, 2-(4-(4-(3-hydroxyphenylamino)thieno[3,2-d]pyrimidin-6-yl)phenyl)-1-(4-methylpiperazin-1-yl)ethanone] | > 30 | > 30 | > 70 | > 70 | > 30 | > 20 |  |  | 56
3 | Oc1cccc(Nc2ncnc3cc(-c4ccc(CCN5CCCC5)cc4)sc23)c1 [LCB 03-0043] | > 30 | > 30 | > 80 | > 80 | > 30 | > 30 |  | 66 | 
4 | Oc1cccc(Nc2ncnc3cc(-c4ccccc4)sc23)c1 [LCB 03-0008, 3-(6-phenylthieno[3,2-d]pyrimidin-4-ylamino)phenol] | > 70 | > 70 | > 70 | > 70 | > 70 | > 70 | 67 | 87 | 
5 | COc1cccc(Nc2ncnc3cc(-c4ccc(OCCN5CCOCC5)cc4)sc23)c1 [LCB 03-0018, N-(3-methoxyphenyl)-6-(4-(2-morpholinoethoxy)phenyl)thieno[3,2-d]pyrimidin-4-amine] | > 70 | > 70 | > 70 | > 70 | > 70 | > 70 | 68 | 89 | 
6 | Oc1cccc(Nc2ncnc3cc(Br)sc23)c1 [LCB 03-0015, 3-(6-Bromo-thieno[3,2-d]pyrimidin-4-ylamino)-phenol] | > 60 | > 60 | > 20 | > 20 | > 60 | > 60 | 71 |  | 
7 | COc1cccc(Nc2ncnc3cc(-c4ccc(OCCc5ccccn5)cc4)sc23)c1 [LCB 03-0022, N-(3-methoxyphenyl)-6-(4-(2-(pyridin-2-yl)ethoxy)phenyl)thieno[3,2-d]pyrimidin-4-amine] | > 60 | > 60 | > 10 | > 10 | > 60 | > 60 |  |  | 
8 | Oc1cccc(Nc2ncnc3cc(-c4ccc(CCN5CCCCC5)cc4)sc23)c1 [LCB 03-0044] | > 30 | > 30 | > 80 | > 80 | > 30 | > 30 |  |  | 
9 | COc1ccc(-c2cc3ncnc(Nc4cccc(O)c4)c3s2)cc1 [LCB 03-0017, 3-[6-(4-Methoxy-phenyl)-thieno[3,2-d]pyrimidin-4-ylamino]-phenol] | > 60 | > 60 | > 70 | > 70 | > 60 | > 60 |  | 82 | 
10 | COc1cccc(Nc2ncnc3cc(-c4cccs4)sc23)c1 [LCB 03-0027, N-(3-methoxyphenyl)-6-(thiophene-2-yl)thieno[3,2-d]pyrimidin-4-amine] | > 40 | > 40 | > 70 | > 70 | > 40 | > 40 |  |  | 
11 | Oc1cccc(Nc2ncnc3cc(-c4ccsc4)sc23)c1 [LCB 03-0031, 3-(6-Thiophene-3-yl-thieno[3,2-d]pyrimidin-4-ylamino)-phenol] | > 40 | > 40 | > 70 | > 70 | > 40 | > 30 |  |  | 

Second part, led by results:

Row | inhibition at 1 µM (Fgr tyrosine kinase) [%] | inhibition at 1 µM (Hck tyrosine kinase) [%] | inhibition at 1 µM (DDR1 tyrosine kinase) [%] | inhibition at 1 µM (DDR2 tyrosine kinase) [%] | inhibition at 1 µM (c-Src tyrosine kinase) [%] | inhibition at 1 µM (Lyn tyrosine kinase) [%] | Compound | inhibition at 10 µM [1] [%] | inhibition at 10 µM ([2]; 10 μM compound, LPS, 24 hours) [%] | inhibition at 10 µM ([2]; 24 h) [%]
12 | > 70 | > 70 | > 70 | > 70 | > 70 | > 70 | CCNCc1csc(-c2cc3ncnc(Nc4cccc(O)c4)c3s2)c1 [LCB 03-0106, 3-(6-(4-((ethylamino)methyl)thiophene-2-yl)thieno[3,2-d]pyrimidin-4-ylamino)phenol] | 63 |  | 
13 | > 30 | > 30 | > 80 | > 80 | > 30 | > 30 | CCOCc1ccc(-c2cc3ncnc(Nc4cccc(O)c4)c3s2)cc1 [LCB 03-0073, 3-(6-(4-(ethoxymethyl)phenyl)thieno[3,2-d]pyrimidin-4-ylamino)phenol] |  | 85 | 
14 | > 60 | > 60 | > 70 | > 70 | > 60 | > 60 | CN1CCN(Cc2csc(-c3cc4ncnc(Nc5cccc(O)c5)c4s3)c2)CC1 [LCB 03-0102, 3-(6-(4-((4-methylpiperazin-1-yl)methyl)thiophene-2-yl)thieno[3,2-d]pyrimidin-4-ylamino)phenol] |  | 97 | 
15 | > 30 | > 30 | > 80 | > 80 | > 30 | > 30 | CC(CO)NC(=O)c1ccc(-c2cc3ncnc(Nc4cccc(O)c4)c3s2)cc1 (stereo not shown) [LCB 03-0074, 4-(4-(3-hydroxyphenylamino)thieno[3,2-d]pyrimidin-6-yl)-N-(1-hydroxypropan-2-yl)benzamide] |  |  | 
16 | > 50 | > 50 | > 70 | > 70 | > 50 | > 50 | Oc1cccc(Nc2ncnc3cc(-c4cc(CN5CCNCC5)cs4)sc23)c1 [LCB 03-0105, 3-(6-(4-(piperazin-1-ylmethyl)thiophene-2-yl)thieno[3,2-d]pyrimidin-4-ylamino)phenol] |  |  | 
17 | > 50 | > 50 | > 80 | > 80 | > 50 | > 50 | CN1CCN(C(=O)c2cccc(-c3cc4ncnc(Nc5cccc(O)c5)c4s3)c2)CC1 [LCB 03-0055, (3-(4-(3-hydroxyphenylamino)thieno[3,2-d]pyrimidin-6-yl)phenyl)(4-methylpiperazin-1-yl)methanone] |  |  | 
18 | > 70 | > 70 |  |  | > 70 | > 70 | Oc1cccc(Nc2ncnc3cc(-c4ccc(N5CCOCC5)cc4)sc23)c1 [LCB 03-0082, 3-(6-(4-morpholinophenyl)thieno[3,2-d]pyrimidin-4-ylamino)phenol] | 77 | 90 | 
